Assay: Solubilities of sesamin, episesamin and their mixture in various oils or fats
Assay type: physicochemical
Procedure: To prepare the lignan-class compound containing emulsion of the present invention, liquid in which a lignan-class compound is dissolved (oil phase) is first prepared. As already mentioned, a sesame oil or the like may be used as the liquid, alternatively, the liquid may be prepared by adding a powdered form of lignan-class compound to a solvent oil or fat, mixing the mixture, and fully dissolving the powdered form to the solvent while agitating the mixture while heating. The blending ratio between the lignan-class compound and the fat or oil varies with the type of the lignan-class compound and the fat, or oil that serves as a solvent and it can be set appropriately in consideration of this fact. The assignees of the subject application have discovered that two lignan-class compounds, sesamin and episesamin, and a mixture thereof had different solubilities in different fats or oils (see Table 1).

Structure (SMILES)	Solubilities (%) in DG	Solubilities (%) in MCT-1	Solubilities (%) in MCT-2	Solubilities (%) in Olive oil	Solubilities (%) in Wheat germ oil
c1cc2c(cc1[C@H]1OC[C@H]3[C@@H]1CO[C@@H]3c1ccc3c(c1)OCO3)OCO2 [Episesamin, episesamin]	1.0%	2.5%	2.5%	0.5%	0.75%
c1cc2c(cc1[C@H]1OC[C@H]3[C@@H]1CO[C@@H]3c1ccc3c(c1)OCO3)OCO2 [Sesamin, sesamin]	1.25%	4.0%	2.0%	0.75%	0.75%

Source: US8685455B2, “Oil-in-water emulsions containing lignan-class compounds and compositions containing the same” (Suntory Holdings Limited, priority 2005, dated 2014)
